This is an account of results in patent publication US5876746A, “Transdermal patch and method for administering 17-deacetyl norgestimate alone or in combination with an estrogen” (Cygnus, Inc., priority 1996, dated 1999).

Where two headings read alike, the source gives them in different places.

Description: Mixtures of Duro-Tak 87-2287, 0.26% aluminum acetylacetonate crosslinker, 6% 17-d-Ngm, 1% EE, and various permeation enhancers were prepared. These mixtures were cured and cast as a 100 micron thick (wet) layer onto a 3M 1022 polyester backing and dried. Skin flux tests were carried out on the resulting assemblies according to the procedure described in col. […] HPLC was used to assay for 17-d-Ngm and EE. A Perkin Elmer HPLC system with Diedoarray detector set at 245 nm and 215 nm for 17-d-Ngm and EE, respectively. The mobile phase was 55% water, 45% acetonitrile at a flow rate of 1.0 ml/min. Retention time was 4.5 and 3.0 min. for 17-d-Ngm and EE, respectively.
It was mixed with 17-d-Ngm, EE, 7% PVP (K30 from BASF; dissolved in n-propanol) and various enhancers. These mixtures were cast as a 100 micron thick (wet) layer onto a 3M 1022 polyester backing and dried. Skin flux tests were carried out on the resulting assemblies as in Example 1.
PIB solutions were prepared by dissolving VISTANEX L100, Vistanex LM-MS-LC, and polybutene (Indopol H1900) in hexane. Suspensions of PVP-CLM, 17-d-Ngm, EE and various enhancers in ethanol/ethyl acetate were prepared. The PIB solution was added to the drug suspensions and the resulting mixtures were thoroughly blended. The mixtures were cast as a 10 mil thick (wet) layer onto release liners and dried at 70° C. for 40 min. Saranex 2015 backing was laminated to the subassembly. Skin flux studies were carried out on these assemblies as in Example 1.

In the case of `C[C@]12CC[C@@H]3c4ccc(O)cc4CC[C@H]3[C@@H]1CC[C@@H]2O` [17β-estradiol], the Flux (Table 5: 2% 17β-estradiol, 2% 17-deacetynorgetimate, 20% PVP-CLM, 76% PIB adhesive) is on record as 0.20 μg/cm^2 /hr.
Turning to `C#C[C@]1(O)CC[C@H]2[C@@H]3CCc4cc(O)ccc4[C@H]3CC[C@@]21C` [EE, ethinyl estradiol], the Flux is, setting by setting: (Table 1: 2% TG + 4% OL, Duro-Tak 87-2287, 6% 17-d-Ngm, 1% EE) 0.061 ± 0.007 μg/cm^2 /hr; (Table 1: 2% TG + 10% ML, Duro-Tak 87-2287, 6% 17-d-Ngm, 1% EE) 0.076 ± 0.005 μg/cm^2 /hr; (Table 1: 2% TG + 10% PGML, Duro-Tak 87-2287, 6% 17-d-Ngm, 1% EE) 0.057 ± 0.009 μg/cm^2 /hr; (Table 1: 3% TG, Duro-Tak 87-2287, 6% 17-d-Ngm, 1% EE) 0.043 ± 0.011 μg/cm^2 /hr; (Table 1: 4% TG + 15% ML, Duro-Tak 87-2287, 6% 17-d-Ngm, 1% EE) 0.072 ± 0.002 μg/cm^2 /hr; (Table 2: silicone 4202, 7% PVP, 2% 17-d-Ngm, 0.5% EE, 2% TG + 2% ML) 0.18 ± 0.02 μg/cm^2 /hr. In addition, the Flux stood at 0.074 ± 0.008 μg/cm^2 /hr (Table 2: silicone 4202, 7% PVP, 4% 17-d-Ngm, 0.5% EE, 2% ML); 0.069 ± 0.007 μg/cm^2 /hr (Table 2: silicone 4202, 7% PVP, 4% 17-d-Ngm, 0.5% EE, 5% ML + 1% TG); 0.043 ± 0.004 μg/cm^2 /hr (Table 2: silicone 4202, 7% PVP, 6% 17-d-Ngm, 0.5% EE, 5% ML + 1% TG); 0.062 ± 0.01 μg/cm^2 /hr (Table 2: silicone 4202, 7% PVP, 6% 17-d-Ngm, 0.5% EE, 14% (TC:PGML; 80:20)); 0.070 ± 0.01 μg/cm^2 /hr (Table 2: silicone 4202, 7% PVP, 6% 17-d-Ngm, 0.5% EE, 14% PGML); 0.078 ± 0.01 μg/cm^2 /hr (Table 2: silicone 4202, 14% PVP, 4% 17-d-Ngm, 0.5% EE, 4% TG + 5% ML). This molecule registered a Flux (Table 3: 0.1% EE, 1% 17-d-Ngm, 5% ML, 7% PVP-CLM, 86.9% silicone) of 0.05 ± 0.002 μg/cm^2 /hr; a Flux (Table 3: 0.1% EE, 1% 17-d-Ngm, 5% ML, 7% PVP-K30, 86.9% silicone) of 0.04 ± 0.008 μg/cm^2 /hr; a Flux (Table 4: PIB 1:5:4, 0.2% EE, 1.0% 17-d-Ngm, 20% PVP-CLM, 5% AMWAT) of 0.05 ± 0.004 μg/cm^2 /hr; a Flux (Table 4: PIB 1:5:4, 0.2% EE, 2.0% 17-d-Ngm, 20% PVP-CLM, 3% oleic acid) of 0.06 ± 0.002 μg/cm^2 /hr; a Flux (Table 4: PIB 1:5:4, 0.2% EE, 2.0% 17-d-Ngm, 20% PVP-CLM, 5% lauramide diethanoiamine) of 0.06 ± 0.001 μg/cm^2 /hr; a Flux (Table 4: PIB 1:5:4, 0.2% EE, 2.0% 17-d-Ngm, 20% PVP-CLM, 10% PGML) of 0.09 ± 0.001 μg/cm^2 /hr. In addition, the Flux (Table 4: PIB 1:5:4, 0.2% EE, 2.0% 17-d-Ngm, 20% PVP-CLM, 10/0.5% PGML/oleic acid) amounted to 0.10 ± 0.001 μg/cm^2 /hr; the Flux (Table 4: PIB 1:5:4, 0.2% EE, 3.0% 17-d-Ngm, 20% PVP-CLM, 3% oleic acid) was 0.04 ± 0.002 μg/cm^2 /hr; the Flux (Table 4: PIB 1:5:4, 0.2% EE, 3.0% 17-d-Ngm, 20% PVP-CLM, 10% PGML) is 0.07 ± 0.001 μg/cm^2 /hr; the Flux (Table 4: PIB 1:5:4, 0.2% EE, 4.0% 17-d-Ngm, 20% PVP-CLM, 5% lauric acid N,N-dimethyl amide) was determined as 0.04 ± 0.001 μg/cm^2 /hr; the Flux (Table 4: PIB 1:5:4, 0.3% EE, 4.0% 17-d-Ngm, 20% PVP-CLM, 8% PGIS) was 0.10 ± 0.001 μg/cm^2 /hr; the Flux (Table 4: PIB 1:5:4, 0.3% EE, 4.0% 17-d-Ngm, 20% PVP-CLM, 8/3% PGML/oleic acid) was 0.14 ± 0.001 μg/cm^2 /hr. The Flux reads like this: (Table 4: PIB 1:5:4, 0.3% EE, 4.0% 17-d-Ngm, 20% PVP-CLM, 15% dibutylsebacate) 0.06 ± 0.005 μg/cm^2 /hr; (Table 4: PIB 1:5:4, 0.3% EE, 4.0% 17-d-Ngm, 20% PVP-CLM, 15% ethyl oleate) 0.10 ± 0.001 μg/cm^2 /hr; (Table 4: PIB 1:5:4, 0.3% EE, 4.0% 17-d-Ngm, 20% PVP-CLM, 15% isopropyl palmitate) 0.07 ± 0.001 μg/cm^2 /hr; (Table 4: PIB 2:4:4, 0.3% EE, 4.0% 17-d-Ngm, 20% PVP-CLM, 20% propyl laurate) 0.06 ± 0.002 μg/cm^2 /hr; (Table 6: 70.8% PIB, 20% PVP-CLM, 0.2% EE, 2% 71-d-Ngm, 7% lauryl lactate, skin permeability Low) 0.03 μg/cm^2 /hr; (Table 6: 70.8% PIB, 20% PVP-CLM, 0.2% EE, 2% 71-d-Ngm, 7% lauryl lactate, skin permeability Medium) 0.08 μg/cm^2 /hr. For the same molecule, the Flux came out at 0.09 μg/cm^2 /hr (Table 6: 72.8% PIB, 20% PVP-CLM, 0.2 EE, 2% 17-d-Ngm, 5% myristyl lactate, skin permeability not given); 0.08 μg/cm^2 /hr (Table 6: 72.85% PIB, 20% PVP-CLM, 0.15% EE, 5% lauryl lactate, skin permeability High); 0.02 μg/cm^2 /hr (Table 6: 72.85% PIB, 20% PVP-CLM, 0.15% EE, 5% lauryl lactate, skin permeability Low); 0.05 μg/cm^2 /hr (Table 6: 72.85% PIB, 20% PVP-CLM, 0.15% EE, 5% lauryl lactate, skin permeability Medium).
